Measured values from patent publication US20260053834A1, “COVALENT MODIFIERS OF AKT1 AND USES THEREOF” (Terremoto Biosciences, Inc., priority 2023, published 2026).

Key:
AKT2 = biological target: T1, AKT2 (Homo sapiens, UniProt P31751); experiment: Live cell target engagement by NanoBRET competitive probe displacement, AKT2; type: binding; conditions: transfected HEK293 cells, 2 h at 37° C., read-out: AKT2 IC50: GeoMean IC50
T1 construct: expressed in transfected cells; host or cells: HEK293
Protocol: (§1) Determining live cell AKT1 E17K, AKT1 WT, and AKT2 target engagement by NanoBRET competitive probe displacement. Live cell target engagement assays were performed as described (Vasta, J. D. et al. Cell Chem Biol 2018, 25(11), 206-214). Briefly, HEK293 cells were transfected with plasmids encoding kinase-NanoLuciferase fusion proteins overnight. Cells were then treated with serial dilutions of compound and an ˜EC50 concentration of fluorescently-tagged ATP-competitive tracer (Promega). After incubation for 2 h at 37° C., luciferase substrate and extracellular luciferase inhibitor were added to all wells, and luminescent intensity at 460 nm and 600 nm were measured on a multimode plate-reader. The ratio of E600/E460 was calculated to give the tracer engagement signal (BRET). IC50 values were calculated by fitting BRET values to a log(inhibitor) vs. response Hill equation.

AKT1 WT = biological target: T2, AKT1 WT (Homo sapiens, UniProt P31749); experiment: Live cell target engagement by NanoBRET competitive probe displacement, AKT1 WT; type: binding; conditions: transfected HEK293 cells, 2 h at 37° C., read-out: AKT1 WT IC50: GeoMean IC50
T2 construct: expressed in transfected cells; host or cells: HEK293
Protocol: as §1

AKT1 E17K = biological target: T3, AKT1 E17K (Homo sapiens, UniProt P31749, E17K); experiment: Live cell target engagement by NanoBRET competitive probe displacement, AKT1 E17K; type: binding; conditions: transfected HEK293 cells, 2 h at 37° C., read-out: AKT1 E17K IC50: GeoMean IC50
T3 construct: expressed in transfected cells; host or cells: HEK293
Protocol: as §1

[1] = tested on: LAPC4 prostate cancer cells, which express the AKT1 E17K allele; experiment: Antiproliferative effects in LAPC4 cells (CellTiter Glo, 72 h); type: cell-based; conditions: Homo sapiens, LAPC4, 72 h, read-out: LAPC4 proliferation IC50: GeoMean IC50
Protocol: Antiproliferative effects in LAPC4 cells. LAPC4 prostate cancer cells (Klein, K. A. et al. Nat Med 1997, 3, 402-408), which express the AKT1 E17K allele, were grown in IMDM media (Hyclone) supplemented with 12% FBS+1% P/S. To assess compound effects on growth, 1,000 cells/well were seeded in 384 well assay plates, incubated with compound dilutions dissolved in DMSO. After 72 h, intracellular ATP content was assessed with CellTiter Glo reagent (Promega) according to the manufacturer's instructions. IC50 values were calculated by fitting luminescence values to a log(inhibitor) vs. response Hill equation.

T2 sequence (P31749 whole entry): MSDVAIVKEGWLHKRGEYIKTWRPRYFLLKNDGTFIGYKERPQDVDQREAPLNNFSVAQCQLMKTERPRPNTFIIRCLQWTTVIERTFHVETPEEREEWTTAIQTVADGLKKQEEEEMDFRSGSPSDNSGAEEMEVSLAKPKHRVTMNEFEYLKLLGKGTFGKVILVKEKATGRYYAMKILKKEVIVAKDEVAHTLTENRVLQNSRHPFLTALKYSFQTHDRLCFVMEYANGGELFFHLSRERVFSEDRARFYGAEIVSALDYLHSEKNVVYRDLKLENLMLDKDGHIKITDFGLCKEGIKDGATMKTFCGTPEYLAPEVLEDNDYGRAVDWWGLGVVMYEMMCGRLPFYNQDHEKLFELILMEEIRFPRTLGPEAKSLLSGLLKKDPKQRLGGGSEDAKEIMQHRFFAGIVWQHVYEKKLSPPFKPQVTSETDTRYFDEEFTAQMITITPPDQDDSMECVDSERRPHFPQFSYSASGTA
T3 sequence (P31749 whole entry E17K): as the sequence (P31749 whole entry) above, with E17K counted along it
T1 sequence (P31751 whole entry): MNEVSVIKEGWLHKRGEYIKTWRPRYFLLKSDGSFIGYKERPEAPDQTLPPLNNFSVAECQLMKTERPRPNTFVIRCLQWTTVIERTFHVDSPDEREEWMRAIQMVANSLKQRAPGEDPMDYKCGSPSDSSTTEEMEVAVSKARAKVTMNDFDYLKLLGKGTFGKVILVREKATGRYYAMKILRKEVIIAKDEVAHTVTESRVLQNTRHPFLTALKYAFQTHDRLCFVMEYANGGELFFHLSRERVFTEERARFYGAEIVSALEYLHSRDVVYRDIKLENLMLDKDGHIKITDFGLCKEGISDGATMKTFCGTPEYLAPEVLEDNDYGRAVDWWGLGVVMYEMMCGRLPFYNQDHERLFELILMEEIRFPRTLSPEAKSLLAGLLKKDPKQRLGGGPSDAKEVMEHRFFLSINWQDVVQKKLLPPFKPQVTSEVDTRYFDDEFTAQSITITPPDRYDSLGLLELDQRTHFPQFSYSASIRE

Compound	IC50 (AKT2)	IC50 (AKT1 WT)	IC50 (AKT1 E17K)	IC50 [1]
Nc1ncccc1-c1nc2ccc(-c3ccccc3)nc2n1-c1ccc2c(c1)CC[C@@H]2NC(=O)c1cc(C=O)c(O)c(F)c1F [Example 22, N-[(1S)-5-[2-(2-aminopyridin-3-yl)-5-phenylimidazo[4,5-b]pyridin-3-yl]-2,3-dihydro-1H-inden-1-yl]-2,3-difluoro-5-formyl-4-hydroxybenzamide]	10 to 100 nM	10 to 100 nM	10 to 100 nM	10 to 100 nM
COc1cc(-n2cccn2)nc2c1nc(-c1cccnc1N)n2-c1ccc2c(c1)CC[C@@H]2NC(=O)c1cc(C=O)c(O)c(F)c1F [Example 222, N-[(1S)-5-[2-(2-aminopyridin-3-yl)-7-methoxy-5-(pyrazol-1-yl)imidazo[4,5-b]pyridin-3-yl]-2,3-dihydro-1H-inden-1-yl]-2,3-difluoro-5-formyl-4-hydroxybenzamide]	10 to 100 nM	10 to 100 nM	10 to 100 nM	10 to 100 nM
Nc1ncccc1-c1nc2c(-n3cn[nH]c3=O)cc(-n3cccn3)nc2n1-c1ccc2c(c1)CC[C@@H]2NC(=O)c1ccc(O)c(C=O)c1 [Example 233, N-[(1S)-5-[2-(2-aminopyridin-3-yl)-7-(3-oxo-2H-1,2,4-triazol-4-yl)-5-(pyrazol-1-yl)imidazo[4,5-b]pyridin-3-yl]-2,3-dihydro-1H-inden-1-yl]-3-formyl-4-hydroxybenzamide]	100 to 2000 nM	100 to 2000 nM	100 to 2000 nM	100 to 2000 nM
Nc1ncccc1-c1nc2ccc(-c3ccn(C(F)F)n3)nc2n1-c1ccc2c(c1)CC[C@@H]2NC(=O)c1cc(C=O)c(O)c(F)c1F [Example 157, (S)—N-(5-(2-(2-aminopyridin-3-yl)-5-(1-(difluoromethyl)-1H-pyrazol-3-yl)-3H-imidazo[4,5-b]pyridin-3-yl)-2,3-dihydro-1H-inden-1-yl)-2,3-difluoro-5-formyl-4-hydroxybenzamide]	10 to 100 nM	10 to 100 nM	< 10 nM	10 to 100 nM
Nc1ncccc1-c1nc2cc(F)c(-n3cccn3)nc2n1-c1ccc2c(c1)CC[C@@H]2NC(=O)c1ccc(O)c(C=O)c1 [Example 248, (S)—N-(5-(2-(2-aminopyridin-3-yl)-6-fluoro-5-(1H-pyrazol-1-yl)-3H-imidazo[4,5-b]pyridin-3-yl)-2,3-dihydro-1H-inden-1-yl)-3-formyl-4-hydroxybenzamide]	100 to 2000 nM	10 to 100 nM	10 to 100 nM	100 to 2000 nM
Nc1ncccc1-c1nc2ccc(-c3ncco3)nc2n1-c1ccc2c(c1)CC[C@@H]2NC(=O)c1cc(C=O)c(O)cc1F [Example 151, N-[(1S)-5-[2-(2-aminopyridin-3-yl)-5-(1,3-oxazol-2-yl)imidazo[4,5-b]pyridin-3-yl]-2,3-dihydro-1H-inden-1-yl]-2-fluoro-5-formyl-4-hydroxybenzamide]	100 to 2000 nM	10 to 100 nM	< 10 nM	10 to 100 nM
Nc1ncccc1-c1nc2ccc(-n3cccn3)nc2n1-c1ccc2c(c1)C(O)C[C@@H]2NC(=O)c1ccc(O)c(C=O)c1 (single isomer, unassigned) [Example 98]	100 to 2000 nM	10 to 100 nM	10 to 100 nM	100 to 2000 nM
Nc1ncccc1-c1nc2ccc(-c3ccccc3)nc2n1-c1ccc2c(c1)CC[C@@H]2NCCc1ccc(C=O)c(O)c1 [Example 4, 4-(2-{[(1S)-5-[2-(2-aminopyridin-3-yl)-5-phenylimidazo[4,5-b]pyridin-3-yl]-2,3-dihydro-1H-inden-1-yl]amino}ethyl)-2-hydroxybenzaldehyde]	100 to 2000 nM	100 to 2000 nM	10 to 100 nM	
Cc1nc2cc(O)c(C=O)cc2c(=O)n1[C@H]1CCc2cc(-n3c(-c4cccnc4N)nc4ccc(-n5cccn5)nc43)ccc21 [Example 249, 3-[(1S)-5-[2-(2-aminopyridin-3-yl)-5-(pyrazol-1-yl)imidazo[4,5-b]pyridin-3-yl]-2,3-dihydro-1H-inden-1-yl]-7-hydroxy-2-methyl-4-oxoquinazoline-6-carbaldehyde]				≥ 2000 nM
Nc1ncccc1-c1nc2ccc(-c3ccccc3)nc2n1-c1ccc2c(c1)CCC2NCCc1ccc(C=O)c(O)c1 (stereo not shown) [Example 1, 4-(2-((5-(2-(2-aminopyridin-3-yl)-5-phenyl-3H-imidazo[4,5-b]pyridin-3-yl)-2,3-dihydro-1H-inden-1-yl)amino)ethyl)-2-hydroxybenzaldehyde]	100 to 2000 nM	100 to 2000 nM	10 to 100 nM	
Nc1ncccc1-c1nc2ccc(-c3ccccc3)nc2n1-c1ccc2c(c1)CCC2NCCc1ccc(O)c(C=O)c1 (stereo not shown) [Example 2, 5-(2-((5-(2-(2-aminopyridin-3-yl)-5-phenyl-3H-imidazo[4,5-b]pyridin-3-yl)-2,3-dihydro-1H-inden-1-yl)amino)ethyl)-2-hydroxybenzaldehyde]	≥ 2000 nM	≥ 2000 nM	100 to 2000 nM	
Nc1ncccc1-c1nc2ccc(-c3ccccc3)nc2n1-c1ccc2c(c1)CC[C@H]2NCCc1ccc(C=O)c(O)c1 [Example 3, 4-(2-{[(1R)-5-[2-(2-aminopyridin-3-yl)-5-phenylimidazo[4,5-b]pyridin-3-yl]-2,3-dihydro-1H-inden-1-yl]amino}ethyl)-2-hydroxybenzaldehyde]	≥ 2000 nM	100 to 2000 nM	10 to 100 nM	
CS(=O)(=O)Nc1cc2ncn([C@H]3CCc4cc(-n5c(-c6cccnc6N)nc6ccc(-n7cccn7)nc65)ccc43)c(=O)c2cc1C=O [Example 244, N-{3-[(1S)-5-[2-(2-aminopyridin-3-yl)-5-(pyrazol-1-yl)imidazo[4,5-b]pyridin-3-yl]-2,3-dihydro-1H-inden-1-yl]-6-formyl-4-oxoquinazolin-7-yl}methanesulfonamide]				100 to 2000 nM
Nc1ncccc1-c1nc2ccc(-n3cccn3)nc2n1-c1ccc2c(c1)CC[C@@H]2NC(=O)c1ccc(F)c(C=O)c1 [Example 191, (S)—N-(5-(2-(2-aminopyridin-3-yl)-5-(1H-pyrazol-1-yl)-3H-imidazo[4,5-b]pyridin-3-yl)-2,3-dihydro-1H-inden-1-yl)-4-fluoro-3-formylbenzamide]	10 to 100 nM	10 to 100 nM	10 to 100 nM	
Nc1ncccc1-c1nc2ccc(-c3ccccc3)nc2n1-c1ccc2c(c1)CC[C@@H]2NC(=O)Cc1ccc(C=O)c(O)c1Cl [Example 9, N-[(1S)-5-[2-(2-aminopyridin-3-yl)-5-phenylimidazo[4,5-b]pyridin-3-yl]-2,3-dihydro-1H-inden-1-yl]-2-(2-chloro-4-formyl-3-hydroxyphenyl)acetamide]	100 to 2000 nM	10 to 100 nM	10 to 100 nM	
Nc1ncccc1-c1nc2ccc(-n3cccn3)nc2n1-c1ccc2c(c1)CC[C@@H]2n1cnc2c(F)c(O)c(C=O)cc2c1=O [Example 243, 3-[(1S)-5-[2-(2-aminopyridin-3-yl)-5-(pyrazol-1-yl)imidazo[4,5-b]pyridin-3-yl]-2,3-dihydro-1H-inden-1-yl]-8-fluoro-7-hydroxy-4-oxoquinazoline-6-carbaldehyde]				100 to 2000 nM
Nc1ncccc1-c1nc2ccc(-c3ccccc3)nc2n1-c1ccc2c(c1)CC[C@H]2NC(=O)c1ccc(O)c(C=O)c1 [Example 7, N-[(1R)-5-[2-(2-aminopyridin-3-yl)-5-phenylimidazo[4,5-b]pyridin-3-yl]-2,3-dihydro-1H-inden-1-yl]-3-formyl-4-hydroxybenzamide]	≥ 2000 nM	≥ 2000 nM	100 to 2000 nM	
Nc1ncccc1-c1nc2ccc(-n3cccn3)nc2n1-c1ccc2c(c1)CC(O)C2NC(=O)c1ccc(O)c(C=O)c1 (stereo not shown) [Example 251, N-(5-(2-(2-aminopyridin-3-yl)-5-(1H-pyrazol-1-yl)-3H-imidazo[4,5-b]pyridin-3-yl)-2-hydroxy-2,3-dihydro-1H-inden-1-yl)-3-formyl-4-hydroxybenzamide]	100 to 2000 nM	100 to 2000 nM	10 to 100 nM	
Nc1ncccc1-c1nc2ccc(-n3cccn3)nc2n1-c1ccc2c(c1)CC[C@@H]2NC(=O)c1cc(C=O)c(F)cc1F [Example 188, (S)—N-(5-(2-(2-aminopyridin-3-yl)-5-(1H-pyrazol-1-yl)-3H-imidazo[4,5-b]pyridin-3-yl)-2,3-dihydro-1H-inden-1-yl)-2,4-difluoro-5-formylbenzamide]	100 to 2000 nM	10 to 100 nM	10 to 100 nM	
Nc1ncccc1-c1nc2ccc(-c3ccccc3)nc2n1-c1ccc2c(c1)CCC2NC(=O)Cc1ccc(C=O)c(O)c1 (stereo not shown) [Example 6, N-(5-(2-(2-aminopyridin-3-yl)-5-phenyl-3H-imidazo[4,5-b]pyridin-3-yl)-2,3-dihydro-1H-inden-1-yl)-2-(4-formyl-3-hydroxyphenyl)acetamide]	100 to 2000 nM	10 to 100 nM	10 to 100 nM	
